Laboratory results taken from EP4806890A1, “CRYSTALLINE COMPOUND OR BASIC SALT THEREOF, PREPARATION METHOD THEREFOR, AND USE THEREOF” (Abbisko Therapeutics Co., Ltd., priority 2023, dated 2025).

How the values were obtained:
Assay type in all cases: physicochemical
[1] = Stability determination (thermal stability and photostability, HPLC purity, appearance, XRPD); details: for XRPD: crystalline form found
Method: (§1) The stability and solubility of the crystalline free form of the compound of formula (I) or the basic salt thereof of the present application were determined by HPLC.
An appropriate amount of the sample was placed in a vial and left to stand at 50 °C, 80 °C or 50 °C & 75% RH (open) for 7 days to evaluate thermal stability. An appropriate amount of the sample was placed in a transparent vial, […] evaluation under conditions of overall near-ultraviolet energy of 1.2 * 10^6 Lux·hr and no less than 200 W·hr/m2.

[2] = Solubility determination (equilibrium solubility, 24 hrs stirring at room temperature, HPLC); details: for Equilibrium solubility: target concentration 2000 µg/mL, 24 hrs; for pH24 hrs: pH of the filtrate after 24 hrs
Method: as §1
The desired amount of the compound was weighed into a glass vial, and the desired amount of a vehicle was added. A stir bar was added to the vial, and the mixture was stirred at room temperature for 24 hrs. After 24 hrs, the appearance of the sample was observed. An appropriate amount of the sample was filtered through a PVDF 0.45 µm filter membrane, and the filtrate was collected. The pH value of the filtrate was determined, and the sample was diluted with MeOH. The diluted sample was injected into an HPLC system to determine the concentration.

[3] = Hygroscopic behavior test by dynamic vapor sorption (DVS); details: for hygroscopicity (in words): DVS, 25 °C
Excerpt: The experimental method of characterizing the crystalline free form of the compound of formula (I) or the basic salt thereof using dynamic vapor sorption (DVS) is as follows: a small amount of the crystalline sample was placed in a precision sample tray that was compatible with the instrument; after the sample was loaded, the sample tray was placed into the instrument for analysis. In this patent, the instruments used for dynamic vapor sorption were all the DVS Intrinsic plus model, and the following experimental parameters were set: nitrogen was used as the carrier gas, a constant temperature of 25 °C was set, the rate of mass percentage change over a unit of time (dm/dt) = 0.002%/min was used as a criterion for determining if equilibrium is reached, and the program humidity change cycle was set to 50-95-0-95-50% RH; within the range of 0-90% RH, a change of 10% RH was taken as a step, and within the range of 90% RH-95% RH, a change of 5% RH was taken as a step.
In the present invention, the hygroscopic weight increases (hygroscopic weight increase/weight before hygroscopy * 100%) of various crystalline forms under various relative humidity conditions were determined using the dynamic vapor sorption method, and the hygroscopicity of different crystalline compounds was evaluated.

[4] = Aluminum foil light exposure control, 9.2 days
[5] = Transparent light exposure, 9.2 days
[6] = pH 4.7, 50 mM acetic acid buffer
[7] = pH 6.8, 50 mM phosphoric acid buffer

Cc1c(NC(=O)c2cc(C3CC3)c(CN3CCCC[C@H]3C(=O)O)cn2)cccc1-c1cccc(NC(=O)c2cc(C3CC3)c(CN3CCCC[C@H]3C(=O)O)cn2)c1C [free-form crystalline form D, (2S,2'S)-1,1'-(((((2,2'-dimethyl-[1,1'-biphenyl]-3,3'-diyl)bis(azanediyl))bis(carbonyl))bis(4-cyclopropylpyridine-6,3-diyl))bis(methylene))bis(piperidine-2-carboxylic acid)]
physical and chemical stability (in words) ([1]; 50 °C, 50 °C/75% RH (open), 80 °C for 7 days and photostress for 10 days): extremely high physical and chemical stability | Appearance ([1]; 50 °C, 7 days): White powder | Purity (%) ([1]; 50 °C, 7 days): 98.13% | Appearance ([1]; 50 °C/75%RH, 7 days): White powder | Purity (%) ([1]; 50 °C/75%RH, 7 days): 98.24% | Appearance ([1]; 80 °C, 7 days): White powder | Purity (%) ([1]; 80 °C, 7 days): 97.22% | Appearance [1, 4]: White powder | Purity (%) [1, 4]: 98.26% | Appearance ([1]; Initial, 0 days): White powder | Purity (%) ([1]; Initial, 0 days): 98.17% | Appearance [1, 5]: White powder | Purity (%) [1, 5]: 96.06% | XRPD ([1]; 50 °C, 7 days): Free-form crystalline form D | XRPD ([1]; 50 °C/75%RH, 7 days): Free-form crystalline form D | XRPD ([1]; 80 °C, 7 days): Free-form crystalline form D | XRPD [1, 4]: Free-form crystalline form D | XRPD ([1]; Initial, 0 days): Free-form crystalline form D | XRPD [1, 5]: Free-form crystalline form D | Equilibrium solubility ([2]; FaSSGF): 87.01 µg/mL | Equilibrium solubility ([2]; FaSSIF): 78.44 µg/mL | Equilibrium solubility ([2]; FeSSIF): 433.75 µg/mL | Equilibrium solubility ([2]; Water, room temperature): 51.93 µg/mL | Equilibrium solubility ([2]; pH 1.2, HCl 100 mM): 281.84 µg/mL | Equilibrium solubility [2, 6]: 47.41 µg/mL | Equilibrium solubility [2, 7]: 42.11 µg/mL | pH24 hrs ([2]; FaSSGF): 1.57 | pH24 hrs ([2]; FaSSIF): 6.43 | pH24 hrs ([2]; FeSSIF): 4.94 | pH24 hrs ([2]; Water): 5.82 | pH24 hrs ([2]; pH 1.2, HCl 100 mM): 1.16 | pH24 hrs [2, 6]: 4.73 | pH24 hrs [2, 7]: 6.90 | solubility (in words) ([2]; various pH conditions, buffers and biological medium solutions): significantly improved solubility | hygroscopicity (in words) [3]: moderate hygroscopicity | hygroscopicity (in words) ([3]; listed as crystalline form D): moderately hygroscopic | Hygroscopic weight increase (%) ([3]; Relative humidity 0.0 % at 25 °C): 0.00% | Hygroscopic weight increase (%) ([3]; Relative humidity 10.0 % at 25 °C): 0.40% | Hygroscopic weight increase (%) ([3]; Relative humidity 20.0 % at 25 °C): 0.85% | Hygroscopic weight increase (%) ([3]; Relative humidity 30.0 % at 25 °C): 1.34% | Hygroscopic weight increase (%) ([3]; Relative humidity 40.0 % at 25 °C): 1.85% | Hygroscopic weight increase (%) ([3]; Relative humidity 50.0 % at 25 °C): 2.30% | Hygroscopic weight increase (%) ([3]; Relative humidity 60.0 % at 25 °C): 2.76% | Hygroscopic weight increase (%) ([3]; Relative humidity 70.0 % at 25 °C): 3.25% | Hygroscopic weight increase (%) ([3]; Relative humidity 80.0 % at 25 °C): 3.79% | Hygroscopic weight increase (%) ([3]; Relative humidity 90.0 % at 25 °C): 4.58% | crystalline form changes after DVS testing ([3]; after DVS testing): no crystalline form changes
